Experimental data taken from patent publication US8604220B2, “Isolation of Simalikalactone E and use thereof as a medicament, in the treatment of malaria” (priority 2009, dated 2013).

Assays:
[1] = system: P. falciparum (F32 Tanzania, FcB1 Colombia, W2 Indochina strains); assay: Antiplasmodial activity in vitro, tritiated hypoxanthine incorporation; format: cell-based; conditions: Plasmodium falciparum, 48 h, read-out: IC50, inhibits 50% of the growth of P. falciparum in culture
Description: The following three strains of Plasmodium falciparum were used: • chloroquine-sensitive F32 Tanzania • chloroquine-resistant FcB1 Colombia • W2 Indochina.
The antimalarial activity of the various products is evaluated by means of the radioactive method using tritiated hypoxanthine, described by Desjardins et al., with the modifications introduced by Benoit et al. (Desjardins R. E. et al., Antimicrob. Agents Chemother, 1979, 16: 710-718; F. Benoit et al. Trans. Roy. Soc. Trop. Med. Hyg. 89: 217-218).
The test is carried out in 96-well culture plates (supplier: TPP, Switzerland) on cultures mainly at the ring stage. The parasites are brought into contact with the products for 48 h at 37° C. and 5% CO2. The growth of the parasite is then estimated by following tritiated hypoxanthine incorporation into the nucleic acids of the parasite. The IC50 values are determined graphically on curves of percentage inhibition of growth as a function of concentration. Thus, the antimalarial activity of SkE was evaluated according to the following protocol. […]
The filter is then placed in a cassette which is placed in the β-counter in order to measure the radioactivity. […]

[2] = Cytotoxicity on Vero cells, tritiated hypoxanthine incorporation; format: cell-based, monkey; conditions: monkey, Vero cells (monkey kidney epithelial cells)
Description: (§1) This evaluation is carried out on two cell types, the MCF-7 line, which is a mammary tumor cell line, and Vero cells (monkey kidney cells).
(§2) VERO cells are monkey kidney epithelial cells. They are cultured in the same way as the MCF-7, but in EMEM medium supplemented with 10% FCS, nonessential amino acids, sodium pyruvate, HEPES and glutamine.
(§3) The evaluation of cytotoxicity follows the same method as the antimalarial activity test, but with P. falciparum being replaced with the MCF-7 or VERO cells.
(§4) However, there are a few minor modifications, owing to the different mode of culture. This is because the cells used for the cytotoxicity tests are adherent cells and their growth is slower. Consequently, they are seeded in 96-well plates 24 hours before they are brought into contact with the test products. After 24 h, the cells adhere to the bottom of the well, the medium is changed, and then the test molecules are added, the dilution thereof being carried out in complete medium. The medium used depends on the cells used (DMEM or EMEM).
(§5) In the same way as for the antimalarial activity test, tritiated hypoxanthine is added 24 hours after bringing into contact with the products, and the plate is placed in the freezer 48 hours later. Finally, the radioactivity is measured as for the antimalarial activity test. The evaluation of the IC50 values is carried out graphically as for that of P. falciparum.

Vero cells = assay: as above; format: cell-based, monkey; conditions: for toxicity compared with Simalikalactone D: mammalian cell lines (Vero cells)
Description: as §1, §2, §3, §4, §5

[3] = Cytotoxicity on THP1 cells; format: cell-based; conditions: human
P. vinckei petteri = assay: Antimalarial activity in vivo, mice infected with P. vinckei petteri (Peters test); parameters: species or system Plasmodium vinckei petteri; conditions: for survival of the mice compared with chloroquine: IP route; for ED50, dose inhibiting 50% of the growth of P. vinckei petteri: mice, 4 days
Description: The antimalarial activity of SkE was evaluated on female Swiss mice (22 g±2) infected with P. vinckei petteri. Before infection of the mice having been used for the test, the parasites were thawed, injected and maintained by passaging in two batches of mice. The parasitized blood was taken from the retro-orbital sinus and each mouse of the study was infected with 2×10^7 parasites intraperitoneally. The infected animals were divided up into batches of 5 per cage and were treated intraperitoneally each day for 4 days. The SkE was tested at 4 concentrations prepared in 90% DMSO (intraperitoneal route) or carboxymethylcellulose (oral route) in such a way that each mouse receives 200 μl of preparation. The experiment included control parasitized mice receiving 200 μl of 90% DMSO or CMC alone orally, and 3 batches of 5 mice, each of these batches being treated with solutions of chloroquine at 1, 5 and 10 mg/kg diluted in PBS (IP).
At the end of the treatment (5 d after the infection), a blood smear was performed from a drop of blood originating from the tail of each mouse, fixed with methanol and stained with Giemsa. The slides were examined under a microscope and the parasitemia counted for 10 000 red blood cells.
The survival of the mice was monitored for 21 days.

[4] = system: liver stages of Plasmodium yoelii; assay: In vitro activity against liver stages of P. yoelii in mouse primary hepatocytes; format: cell-based; conditions: for IC50: Plasmodium yoelii, Hepatocyte, liver stages, 48 hours, SkE mean of three experiments, read-out: IC50 on murine hepatocytes infected with P. yoelii
Description: (§6) The in vitro activity of SkE against the pre-erythrocytic stages was tested on different Plasmodium species. […] The in vitro assays were carried out using cultures of human primary hepatocytes (HH) or mouse primary hepatocytes (MH), respectively. The primary cells were isolated by collagenase perfusion of pieces of liver (obtained from humans or from female Swiss mice, respectively), followed by purification of the separated cells on a percoll gradient. The hepatocytes were seeded into 96-well microplates (35 000 MH/well and 82 500 HH/well) and maintained in culture at 37° C. and 5% CO2 in a William medium supplemented with 10% FCS (Hyclone), 100 U/ml of penicillin, […] of streptomycin, 2 mM of glutamine, 5 μg/ml of insulin and 5×10^−7 M of hydrocortisone hemisuccinate. A stock solution of SkE was prepared in DMSO at 200 mg/ml, and then diluted in complete medium described above so as to obtain the desired concentrations. The hepatocytes were infected with P. yoelii sporozoites (30 000) or P. falciparum sporozoites (40 000). The SkE compound was added simultaneously with sporozoites at various concentrations. The culture medium was then replaced 3 h after the inoculation of the sporozoites, and then every day. The cultures were fixed 48 hours after the infection for P. yoelii, and 5 days after infection for P. falciparum. The inhibitory effect of the compound was quantified, after fluorescent immunolabeling of the liver schizonts with a mouse serum directed against PfHSP70, by fluorescence microscopy analysis.

[5] = system: liver stages of Plasmodium falciparum; assay: In vitro activity against liver stages of P. falciparum in human primary hepatocytes; format: cell-based; conditions: for therapeutic index TI=TC50/IC50: P. falciparum liver stages, human hepatocytes; for IC50: Plasmodium falciparum, Hepatocyte, 120 h, human primary hepatocytes, 5 days, SkE mean of two experiments
Description: as §6

[6] = In vitro cytotoxicity on primary rodent hepatocytes, MTT assay; format: cell-based, mouse; conditions: Swiss, mouse, primary hepatocytes; one of the 3 experiments carried out; read-out: cytotoxicity IC50 on murine hepatocytes
Description: (§7) In parallel, the cytotoxicity of the compound was evaluated on human and rodent hepatocytes treated under the same conditions as in the assays for activity of the test compound, by means of the MTT (tetrazolium) colorimetric assay (Mosmann et al., 1983). After incubation of the primary rodent or human hepatocytes for 2 days or 5 days, respectively, with the various concentrations of the test compound, 100 μl of MTT solution ([…]) were added to each well. The plates were then incubated for 4 hours at 37° C. The formazan crystals were then dissolved in 100 μl of DMSO-ethanol mixture (V/V). The optical density was measured by spectrophotometry at 540 nm. The results are expressed as percentage cell viability relative to the untreated control.

[7] = system: primary rodent hepatocytes; assay: as above; format: cell-based, mouse; conditions: the other two experiments; highest concentration tested 5.54 μM
Description: as §7

[8] = Vero cells versus P. falciparum

SMILES	IC50 [1] [nM]	IC50 at 72 h [2] [nM]	IC50 (Vero cells; Primates, Vero cells, read-out: inhibits 50% of the growth of Vero mammalian cells) [nM]	selectivity index (Vero cells; [8])	selectivity index with respect to P. falciparum compared with SkD (Vero cells; [8])	toxicity compared with Simalikalactone D (Vero cells)	toxicity compared with Simalikalactone D (Vero cells; listed as Simalikalactone E)	IC50 [3] [nM]	survival of the mice compared with chloroquine (P. vinckei petteri; all doses, p<0.05)	survival of the mice compared with chloroquine (P. vinckei petteri; dose of 1 mg/kg/d)	mean survival time of the mice (P. vinckei petteri; ip at 1 mg/kg/day, monitored for 3 weeks, one experiment)	ED50, dose inhibiting 50% of the growth of P. vinckei petteri (P. vinckei petteri; intraperitoneally) [mg/kg/day]	ED50, dose inhibiting 50% of the growth of P. vinckei petteri (P. vinckei petteri; orally) [mg/kg/day]	IC50 [4] [nM]	activity relative to primaquine on P. yoelii liver stages ([4]; fold more active than primaquine, same conditions)	therapeutic index TI=TC50/IC50 [5]	IC50 [5] [nM]	IC50 at 2 days [6] [nM]	cytotoxicity on murine hepatocytes at highest concentration tested [7]
CCC(C)C(=O)O[C@@H]1[C@H]2C(C)=CC(=O)[C@@H](O)[C@]2(C)[C@H]2[C@@H](O)[C@H](O)[C@@]3(C)OC[C@@]24[C@@H]1OC(=O)[C@H](OC(=O)C(C)CC)[C@@H]34 (some centres unmarked) [SkE, Simalikalactone E]	24 to 68	6000	6570	greater than 100	twice that of SkD	less than that of SkD	less toxicity than Simalikalactone D	33	always better than that of the mice treated with CQ at the doses of 1	equivalent to what is obtained for CQ at 10 mg/kg/d	greater than 18.6 days	0.5	1	186 ± 16	at least 3 times	75	1200 ± 190	1120	no toxicity was observed
CCN(CC)CCCC(C)Nc1ccnc2cc(Cl)ccc12 (centres unmarked) [chloroquine, reference compound]	–	–	–	–	–	–	–	–	–	–	–	3	–	–	–	–	–	–	–
COc1cc(NC(C)CCCN)c2ncccc2c1 (centres unmarked) [primaquine, reference compound]	–	–	–	–	–	–	–	–	–	–	–	–	–	640	–	81	800	–	–
